These results are taken from patent publication US20220409510A1, “Polypeptides And Methods For Improving Skin Conditions” (Interk Peptide Therapeutics Limited, priority 2018, published 2022).

Experiment [1] addresses T1, Human rheumatoid synovial fibroblast MMP-1 (Homo sapiens, UniProt P03956).
T1 construct: endogenous in cells; host or cells: human rheumatoid synovial fibroblasts (native proenzyme isolated from these cells)
T1 sequence (P03956 100-469): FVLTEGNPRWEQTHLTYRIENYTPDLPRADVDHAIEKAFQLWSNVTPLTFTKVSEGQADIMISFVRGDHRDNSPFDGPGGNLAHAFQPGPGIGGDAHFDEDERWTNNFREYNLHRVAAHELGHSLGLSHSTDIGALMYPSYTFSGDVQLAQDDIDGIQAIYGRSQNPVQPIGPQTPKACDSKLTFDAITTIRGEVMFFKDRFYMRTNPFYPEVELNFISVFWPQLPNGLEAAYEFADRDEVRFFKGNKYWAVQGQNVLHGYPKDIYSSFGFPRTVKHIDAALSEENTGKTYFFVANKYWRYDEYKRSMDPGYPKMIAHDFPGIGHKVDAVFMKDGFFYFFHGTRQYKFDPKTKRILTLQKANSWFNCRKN
As to the kind of experiment: MMP-1 activity in vitro (fluorogenic substrate). It counts as biochemical. Conditions: 5, 10, 800 and 1000 μM; 8 nM activated enzyme; pH 7.2; FIG. 16. Here is the method:
The effect of the polypeptide IK34720 (SEQ ID NO: 3) on MMP-1 activity was evaluated using the following protocol.
Human rheumatoid synovial fibroblast MMP-1 proenzyme, activated with APMA for 60 minutes at 37° C., was used as an active enzyme. The polypeptide IK34720 (SEQ ID NO: 3) at a concentration of 5 μM. 10 μM 800 μM and 1000 μM was pre-incubated with 8 nM activated enzyme in modified MOPS buffer pH 7.2 for 60 minutes at 37° C. The reaction was initiated by addition of […] Mca-Pro-Leu-Gly-Leu-Dap-Ala-Arg followed by a 2 hour incubation period. Determination of the amount of Mca-Pro-Leu-Gly formed was read spectrofluorimetrically at 340 nm/400 nm.

In experiment [2] the test system is 8-OHdG formation in the skin. As to the kind of experiment: UV-induced oxidative stress (8-OHdG/8oxodG immunohistochemistry) in mouse skin. Particulars: topical immediately after 3 MED UVR; IK34720 20, 100 or 200 μg, Calcitriol 11.4 pmol/cm2; 3 h post-UVR; vs vehicle. It counts as in vivo, Skh:hr1 hairless mice. Here is the method: 8-hydroxy-2′-deoxyguanosine or 8-oxo-7,8-dihydro-2′-deoxyguanosine (8-OHdG/8-oxodG) is one of the predominant forms of free radical-induced in oxidative lesions with the concentrations of 8-OHdG within a cell being a measurement of oxidative stress. The role of the polypeptide IK34720 (SEQ ID NO: 3) in UV-induced oxidative stress was assessed using the following protocol.
Female Skh:hr1 hairless mice were exposed to solar simulated UV-irradiation (UVR) by exposure to one fluorescent UVB tube (Philips TL40W 12R/S, Eindhoven, The Netherlands) in combination with 6 UVA tubes (Hitachi 40W F40T 10/BL, Tokyo, Japan). The UVA and UVB irradiation was filtered through a 0.125 mm cellulose acetate sheet (Grafix Plastics, Cleveland, Ohio) as previously described (Dixon KM et al., Biochem Mol Biol, 2007, 103(3-5):451-6). […]
Biopsies were taken from UV-irradiated dorsal skin 3 h post-UVR and fixed in Histochoice fixative (Amresco, Solon Ohio) for 6 h. […] Sections were subjected to routine hematoxylin and eosin staining for visualization of sunburn cells at 40× magnification, and the number of sunburn cells per linear millimetre of skin section recorded.
Levels of 8-oxo-2′-deoxyguanosine (8oxodG) indicative of oxidative stress were detected by immunohistochemistry and image analysis (Dixon KM et al., Cancer Prey Res 2011, 4(9):1485-94) as set out below. […]

A further experiment deals with TGFβRII. As to the kind of experiment: TGFβRII expression in UV irradiated dermal fibroblasts (Western analysis). Conditions: 1, 2.5, 5 and 10 μM added immediately after UV; 5 h post UV; primary fibroblasts; FIG. 3B. It counts as cell-based, human. Here is the method: The influence of the polypeptide IK34720 (SEQ ID NO: 3) on TGFβRII phosphorylation was assessed using the following protocol.
Human skin dermal fibroblasts were cultured from keratome biopsies of healthy adult human skin. Cells were between passages three and six. For UV irradiation, subconfluent cells were washed once with phosphate-buffered saline (PBS) and irradiated with UV. Immediately following irradiation, negative control (vehicle) or 1 μM, 2.5 μM, 5 μM and 10 μM of IK34720 (“1K” in FIG. 3B, SEQ ID NO: 3) were added to the cell cultures.
For Western analysis, nuclear extracts were prepared, membrane fractions were prepared and resolved on 8% SDS-polyacrylamide gel electrophoresis, transferred to polyvinylidene difluoride membrane, and reacted with primary antibodies. Blots were visualized and quantified.

“RSKAKNPLYRRRRRRRRR [IK34720, 18-residue polypeptide: … with a C-terminal polyarginine region of 8 arginines]”: the MMP-1 activity result in experiment [1] was “inhibits MMP-1 activation in a dose dependent manner”. Moreover, the “8-OHdG formation in the skin” value in experiment [2] is given as “inhibits 8-OHdG formation”. Also, in the experiment on TGFβRII, the TGFβRII expression entry was “restored TGFβRII expression in UV treated cells”.
